Where no end group is shown, it is not given here.

Sequence of Avidin (P02701 25-152): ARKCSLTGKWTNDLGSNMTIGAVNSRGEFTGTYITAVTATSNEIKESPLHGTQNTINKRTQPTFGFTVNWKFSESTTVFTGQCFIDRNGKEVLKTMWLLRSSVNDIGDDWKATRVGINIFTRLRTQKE

One experiment deals with anti-octapeptide M2 monoclonal antibody. The experiment in a line: heterogeneous competitive immunoassay with immobilized M2 antibody and octapeptide-GFP conjugate, selectivity study. Type of experiment: binding. The following applies: sequential incubation 25 min + 25 min, supernatant fluorescence (FIG. 10). As to the method:
A dose-response curve was constructed by incubating 200 μL of a solution of different concentrations of the octapeptide with 200 μL of a 140 μg/mL suspension of the immobilized antibody and 90 μL of 1.1×10^−8 M of octapeptide-GFP conjugate and 1.510 mL of PBS buffer.
The incubations were performed in a sequential manner. Initially, the octapeptide was incubated with the beads for 25 min. Then, the tubes were centrifuged at 2000×g for 15 min, the supernatant was removed, and the beads were washed three times with PBS. PBS (1.710 mL) and the octapeptide-GFP conjugate were added, and the mixture was incubated for an additional 25 min at room temperature. The beads were then centrifuged again as described, and 1.7 mL of the supernatant was transferred to plastic cuvettes for measurement of fluorescence emission at 508 nm. The selectivity of the assay was evaluated by constructing a dose-response curve for rev-octapeptide, an octapeptide with the amino acids of the octapeptide in the reverse order.
For the compound “KDDDDKYD [rev-octapeptide, octapeptide with the amino acids of the octapeptide in the reverse order]”, the “response in dose-response curve (displacement of octapeptide-GFP from M2 antibody)” value is on record as “essentially no response”.

A further experiment has as its target Avidin (Gallus gallus, UniProt P02701).
Test: not given
The following applies: association (affinity) constant of the binding pair substance: Avidin; cited from earlier work.
With `O=C(O)CCCCC1SCC2NC(=S)NC21` (stereo not drawn) [2-thiobiotin], the Ka is 10^13 M^−1.
Take `COC(=O)CCCCC1SCC2NC(=O)N(C(=O)OC)C21` (stereo not drawn) [3′-N-methoxy-carbonylbiotin methyl ester]: the Ka is 10^9 M^−1.
In the case of `O=C(O)CCCC[C@@H]1SC[C@@H]2NC(=O)N[C@@H]21` [Biotin], the Ka was 10^15 M^−1.
For the compound `C[C@@H]1NC(=O)N[C@@H]1CCCCCC(=O)O` [Dethiobiotin], the Ka is on record as 10^13 M^−1.
`N=C1N[C@H]2[C@H](CS[C@H]2CCCCC(=O)O)N1` [Iminobiotin]: the Ka was 10^11 M^−1.

(Values after patent US20050282225A1, “Quantitative binding assays using green fluorescent protein as a label” (priority 1998, published 2005).)
